Converted amounts (≈) assume the structure as drawn. The source made the active and inactive calls. The calls are words filed in the database; no cut-off is given here.
Assays:
[1] = test system: Plasmodium berghei; assay: Antiplasmodial activity against Plasmodium berghei ANKA expressing GFP infected in BALB/c mouse assessed as host survival days at 50 mg/kg, po qd for 4 days; type: functional
[2] = test system: Mus musculus; assay: Dose normalized Cmax in Plasmodium falciparum 3D70087/N9 infected NODscidIL2Rgamma-null mouse at 3 mg/kg, po by LC-MS/MS analysis; type: ADME, organism-based; set-up: dose 3 mg/kg, route oral; conditions: in vivo
[3] = Tmax in Plasmodium falciparum 3D70087/N9 infected NODscidIL2Rgamma-null mouse at 3 mg/kg, po by LC-MS/MS analysis; type: ADME, organism-based; set-up: dose 3 mg/kg, route oral; conditions: in vivo
[4] = Fraction unbound in human plasma; type: ADME, cell-free
[5] = Volume of distribution at steady state in Wistar rat at 1 mg/kg, iv; type: ADME, organism-based; set-up: dose 1 mg/kg, route intravenous; conditions: in vivo, read-out: Vdss
[6] = test system: Mus musculus; assay: Dose normalized Cmax in Plasmodium falciparum 3D70087/N9 infected NODscidIL2Rgamma-null mouse at 10 mg/kg, po by LC-MS/MS analysis; type: ADME, organism-based; set-up: dose 10 mg/kg, route oral; conditions: in vivo
[7] = test system: Mus musculus; assay: Dose normalized Cmax in Plasmodium falciparum 3D70087/N9 infected NODscidIL2Rgamma-null mouse at 50 mg/kg, po by LC-MS/MS analysis; type: ADME, organism-based; set-up: dose 50 mg/kg, route oral; conditions: in vivo
[8] = Clearance in Wistar rat at 1 mg/kg, iv; type: ADME, organism-based; set-up: dose 1 mg/kg, route intravenous; conditions: in vivo
[9] = Aqueous solubility of the compound; type: physicochemical; conditions: buffer
[10] = Tmax in Plasmodium falciparum 3D70087/N9 infected NODscidIL2Rgamma-null mouse at 30 mg/kg, po by LC-MS/MS analysis; type: ADME, organism-based; set-up: dose 30 mg/kg, route oral; conditions: in vivo
[11] = test system: Plasmodium falciparum; assay: Antiplasmodial activity against Plasmodium falciparum 3D70087/N9 infected in po dosed NODscidIL2Rgamma-null mouse assessed as reduction of parasite level in peripheral blood qd for 4 days by flow cytometry analysis; type: functional; conditions: 96 h
[12] = test system: Plasmodium falciparum; assay: microbe, parasite or virus in culture; conditions: K1, 72 h
[13] = test system: Plasmodium berghei; assay: Antiplasmodial activity against Plasmodium berghei ANKA expressing GFP infected in BALB/c mouse assessed as reduction of viable parasites at 50 mg/kg, po qd for 4 days by flow cytometry; type: functional
[14] = Clearance in human liver microsomes; type: ADME; conditions: read-out: CLH
[15] = target: Cytochrome P450 2C19 (Homo sapiens, UniProt P33261); assay: Inhibition of CYP2C19 (unknown origin); type: ADME
[16] = AUC (0 to 23 hrs) in Plasmodium falciparum 3D70087/N9 infected NODscidIL2Rgamma-null mouse at 30 mg/kg, po by LC-MS/MS analysis; type: ADME, organism-based; set-up: time < 23 hr, dose 30 mg/kg, route oral; conditions: plasma
[17] = test system: Mus musculus; assay: AUC (0 to 23 hrs) in Plasmodium falciparum 3D70087/N9 infected NODscidIL2Rgamma-null mouse at 10 mg/kg, po by LC-MS/MS analysis; conditions: in vivo
[18] = Tmax in Plasmodium falciparum 3D70087/N9 infected NODscidIL2Rgamma-null mouse at 50 mg/kg, po by LC-MS/MS analysis; type: ADME, organism-based; set-up: dose 50 mg/kg, route oral; conditions: in vivo
[19] = test system: Mus musculus; assay: Dose normalized AUC (0 to 23 hrs) in Plasmodium falciparum 3D70087/N9 infected NODscidIL2Rgamma-null mouse at 3 mg/kg, po by LC-MS/MS analysis; type: ADME, organism-based; set-up: dose 3 mg/kg, route oral; conditions: in vivo
[20] = target: Cytochrome P450 2C9 (Homo sapiens, UniProt P11712); assay: Inhibition of CYP2C9 (unknown origin); type: ADME
[21] = AUC in Wistar rat at 1 mg/kg, iv; type: ADME, organism-based; set-up: dose 1 mg/kg, route intravenous; conditions: plasma
[22] = target: Voltage-gated inwardly rectifying potassium channel KCNH2 (Homo sapiens, UniProt Q12809); assay: Inhibition of human ERG
[23] = Clearance in rat hepatocytes assessed per 1E6 cells; type: ADME, cell-based, Hepatocyte; conditions: read-out: CLH
[24] = Lipophilicity, log D of the compound; type: physicochemical; conditions: octanol/water
[25] = Cmax in Plasmodium falciparum 3D70087/N9 infected NODscidIL2Rgamma-null mouse at 3 mg/kg, po by LC-MS/MS analysis; type: ADME, organism-based; set-up: dose 3 mg/kg, route oral; conditions: in vivo
[26] = Half life in Wistar rat at 5 mg/kg, po; type: ADME, organism-based; set-up: dose 5 mg/kg, route oral; conditions: in vivo
[27] = Half life in Wistar rat at 1 mg/kg, iv; type: ADME, organism-based; set-up: dose 1 mg/kg, route intravenous; conditions: in vivo
[28] = target: T1, Cytochrome P450 1A2 (Homo sapiens, UniProt P05177); assay: Inhibition of CYP1A2 (unknown origin); type: ADME
T1 sequence (P05177 whole entry): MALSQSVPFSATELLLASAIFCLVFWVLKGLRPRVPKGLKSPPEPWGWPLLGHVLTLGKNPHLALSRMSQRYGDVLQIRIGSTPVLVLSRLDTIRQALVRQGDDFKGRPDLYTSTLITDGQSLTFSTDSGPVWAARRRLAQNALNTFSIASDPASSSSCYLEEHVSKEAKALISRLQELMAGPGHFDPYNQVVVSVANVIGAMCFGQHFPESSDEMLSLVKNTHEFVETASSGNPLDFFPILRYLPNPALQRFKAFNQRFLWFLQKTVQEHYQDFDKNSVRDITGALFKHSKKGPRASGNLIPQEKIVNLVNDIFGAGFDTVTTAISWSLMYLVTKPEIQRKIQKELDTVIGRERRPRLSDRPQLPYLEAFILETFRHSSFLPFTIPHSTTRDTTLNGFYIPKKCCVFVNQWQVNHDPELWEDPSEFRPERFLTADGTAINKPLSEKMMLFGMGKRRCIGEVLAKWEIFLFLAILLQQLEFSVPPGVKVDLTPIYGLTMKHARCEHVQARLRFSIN

[29] = AUC (0 to 23 hrs) in Plasmodium falciparum 3D70087/N9 infected NODscidIL2Rgamma-null mouse at 50 mg/kg, po by LC-MS/MS analysis; type: ADME, organism-based; set-up: time < 23 hr, dose 50 mg/kg, route oral; conditions: plasma
[30] = test system: Mus musculus; assay: AUC (0 to 23 hrs) in Plasmodium falciparum 3D70087/N9 infected NODscidIL2Rgamma-null mouse at 30 mg/kg, po by LC-MS/MS analysis; conditions: in vivo
[31] = target: Cytochrome P450 3A4 (Homo sapiens, UniProt P08684); assay: Inhibition of CYP3A4 (unknown origin); type: ADME
[32] = AUC (0 to 23 hrs) in Plasmodium falciparum 3D70087/N9 infected NODscidIL2Rgamma-null mouse at 3 mg/kg, po by LC-MS/MS analysis; type: ADME, organism-based; set-up: time < 23 hr, dose 3 mg/kg, route oral; conditions: plasma
[33] = Cmax in Plasmodium falciparum 3D70087/N9 infected NODscidIL2Rgamma-null mouse at 50 mg/kg, po by LC-MS/MS analysis; type: ADME, organism-based; set-up: dose 50 mg/kg, route oral; conditions: in vivo
[34] = test system: Mus musculus; assay: AUC at ED90 in po dosed Plasmodium falciparum 3D70087/N9 infected NODscidIL2Rgamma-null mouse after 7 days; type: ADME, organism-based, Plasma; conditions: in vivo, 168 h
[35] = target: Cytochrome P450 2D6 (Homo sapiens, UniProt P10635); assay: Inhibition of CYP2D6 (unknown origin); type: ADME
[36] = test system: Mus musculus; assay: Dose normalized Cmax in Plasmodium falciparum 3D70087/N9 infected NODscidIL2Rgamma-null mouse at 30 mg/kg, po by LC-MS/MS analysis; type: ADME, organism-based; set-up: dose 30 mg/kg, route oral; conditions: in vivo
[37] = test system: Mus musculus; assay: AUC (0 to 23 hrs) in Plasmodium falciparum 3D70087/N9 infected NODscidIL2Rgamma-null mouse at 50 mg/kg, po by LC-MS/MS analysis; conditions: in vivo
[38] = AUC (0 to 23 hrs) in Plasmodium falciparum 3D70087/N9 infected NODscidIL2Rgamma-null mouse at 10 mg/kg, po by LC-MS/MS analysis; type: ADME, organism-based; set-up: time < 23 hr, dose 10 mg/kg, route oral; conditions: plasma
[39] = Cmax in Plasmodium falciparum 3D70087/N9 infected NODscidIL2Rgamma-null mouse at 30 mg/kg, po by LC-MS/MS analysis; type: ADME, organism-based; set-up: dose 30 mg/kg, route oral; conditions: in vivo
[40] = Clearance in mouse liver microsomes; type: ADME; conditions: read-out: CLH
[41] = Oral bioavailability in Wistar rat at 5 mg/kg; type: ADME, organism-based; conditions: in vivo
[42] = Cmax in Plasmodium falciparum 3D70087/N9 infected NODscidIL2Rgamma-null mouse at 10 mg/kg, po by LC-MS/MS analysis; type: ADME, organism-based; set-up: dose 10 mg/kg, route oral; conditions: in vivo
[43] = Selectivity index, ratio of IC50 for human A549 cells to IC50 for Plasmodium falciparum; type: toxicity, cell-based; conditions: read-out: Ratio IC50
[44] = Cmax in Wistar rat at 5 mg/kg, po; type: ADME, organism-based; set-up: dose 5 mg/kg, route oral; conditions: in vivo
[45] = test system: Plasmodium falciparum; assay: microbe, parasite or virus in culture; conditions: NF54, 72 h
[46] = Tmax in Plasmodium falciparum 3D70087/N9 infected NODscidIL2Rgamma-null mouse at 10 mg/kg, po by LC-MS/MS analysis; type: ADME, organism-based; set-up: dose 10 mg/kg, route oral; conditions: in vivo
[47] = test system: Plasmodium falciparum; assay: Antiplasmodial activity against Plasmodium falciparum Dd2; type: functional, organism-based
[48] = test system: Plasmodium falciparum; assay: microbe, parasite or virus in culture; conditions: SB1, 72 h
Description: Antiplasmodial activity against Plasmodium falciparum SB1 after 72 hrs by SYBR I method

[49] = test system: Plasmodium falciparum; assay: Antiplasmodial activity against Plasmodium falciparum Dd2 harboring DHODH mutant; type: functional, organism-based
[50] = test system: Plasmodium falciparum; assay: microbe, parasite or virus in culture; conditions: 7G8, 72 h
Description: Antiplasmodial activity against Plasmodium falciparum 7G8 after 72 hrs by SYBR I method

[51] = test system: Plasmodium falciparum; assay: microbe, parasite or virus in culture; conditions: W2, 72 h
Description: Antiplasmodial activity against Plasmodium falciparum W2 after 72 hrs by SYBR I method

[52] = test system: Plasmodium falciparum; assay: Antiplasmodial activity against Plasmodium falciparum Dd2 harboring HSP90 mutant; type: functional, organism-based
[53] = test system: Plasmodium falciparum; assay: Antiplasmodial activity against Plasmodium falciparum Dd2 harboring CYTb-Qi mutant; type: functional, organism-based
[54] = test system: Plasmodium falciparum; assay: microbe, parasite or virus in culture; conditions: Dd2, 72 h
Description: Antiplasmodial activity against Plasmodium falciparum Dd2 after 72 hrs by SYBR I method

[55] = test system: Plasmodium falciparum; assay: Antiplasmodial activity against chloroquine and pyrimethamine-sensitive Plasmodium falciparum 3D7A assessed as parasite reduction ratio at 10 times IC50 after 48 hrs; type: functional, organism-based
[56] = test system: Plasmodium falciparum; assay: Antiplasmodial activity against Plasmodium falciparum Dd2 harboring CRT mutant; type: functional, organism-based
[57] = test system: Plasmodium berghei; assay: Antiplasmodial activity against Plasmodium berghei ANKA expressing GFP infected in BALB/c mouse assessed as host survival days at 30 mg/kg, po qd for 4 days; type: functional

Sequence of Voltage-gated inwardly rectifying potassium channel KCNH2 (Q12809 whole entry): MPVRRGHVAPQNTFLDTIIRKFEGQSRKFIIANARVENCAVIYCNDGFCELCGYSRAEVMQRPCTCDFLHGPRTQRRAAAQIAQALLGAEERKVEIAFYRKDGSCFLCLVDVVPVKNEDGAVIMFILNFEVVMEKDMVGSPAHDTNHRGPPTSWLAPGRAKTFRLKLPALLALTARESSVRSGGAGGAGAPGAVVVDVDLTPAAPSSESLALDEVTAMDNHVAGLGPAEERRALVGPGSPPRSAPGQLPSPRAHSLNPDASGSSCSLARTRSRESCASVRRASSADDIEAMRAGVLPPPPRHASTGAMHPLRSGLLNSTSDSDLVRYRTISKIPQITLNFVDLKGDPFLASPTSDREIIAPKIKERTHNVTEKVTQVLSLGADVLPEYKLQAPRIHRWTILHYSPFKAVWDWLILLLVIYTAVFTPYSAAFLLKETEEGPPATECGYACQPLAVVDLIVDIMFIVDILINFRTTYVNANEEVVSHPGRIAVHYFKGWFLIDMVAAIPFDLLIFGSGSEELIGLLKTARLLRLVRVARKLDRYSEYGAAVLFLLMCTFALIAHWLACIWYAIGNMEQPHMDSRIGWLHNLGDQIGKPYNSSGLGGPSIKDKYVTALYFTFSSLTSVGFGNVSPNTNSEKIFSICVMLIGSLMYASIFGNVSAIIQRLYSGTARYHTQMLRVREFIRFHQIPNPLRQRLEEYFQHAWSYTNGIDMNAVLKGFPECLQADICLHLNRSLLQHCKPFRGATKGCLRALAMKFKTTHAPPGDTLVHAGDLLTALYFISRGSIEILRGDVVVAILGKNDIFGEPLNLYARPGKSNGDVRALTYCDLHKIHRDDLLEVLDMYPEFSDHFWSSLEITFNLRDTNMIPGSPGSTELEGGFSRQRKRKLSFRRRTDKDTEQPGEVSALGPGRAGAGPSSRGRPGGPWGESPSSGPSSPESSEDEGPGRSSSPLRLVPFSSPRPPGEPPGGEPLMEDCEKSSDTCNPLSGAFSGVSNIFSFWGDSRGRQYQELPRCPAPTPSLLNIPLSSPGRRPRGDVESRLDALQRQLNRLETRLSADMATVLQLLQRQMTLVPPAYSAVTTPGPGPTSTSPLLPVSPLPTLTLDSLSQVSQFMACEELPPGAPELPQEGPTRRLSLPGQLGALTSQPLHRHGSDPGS
Sequence of Cytochrome P450 3A4 (P08684 whole entry): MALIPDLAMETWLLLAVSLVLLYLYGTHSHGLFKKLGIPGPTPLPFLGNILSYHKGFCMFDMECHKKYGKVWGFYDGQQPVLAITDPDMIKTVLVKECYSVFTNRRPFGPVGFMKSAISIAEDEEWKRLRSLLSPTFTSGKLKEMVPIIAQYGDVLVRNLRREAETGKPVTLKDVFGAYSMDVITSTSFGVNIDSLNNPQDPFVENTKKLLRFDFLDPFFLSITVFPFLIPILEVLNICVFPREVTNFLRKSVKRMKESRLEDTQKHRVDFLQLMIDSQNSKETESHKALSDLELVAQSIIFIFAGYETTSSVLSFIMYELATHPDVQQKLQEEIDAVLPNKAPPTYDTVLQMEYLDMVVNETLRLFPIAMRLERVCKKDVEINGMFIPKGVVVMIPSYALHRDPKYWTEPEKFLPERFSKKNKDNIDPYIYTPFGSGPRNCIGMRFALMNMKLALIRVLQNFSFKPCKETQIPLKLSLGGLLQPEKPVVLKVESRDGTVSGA
Sequence of Cytochrome P450 2C9 (P11712 whole entry): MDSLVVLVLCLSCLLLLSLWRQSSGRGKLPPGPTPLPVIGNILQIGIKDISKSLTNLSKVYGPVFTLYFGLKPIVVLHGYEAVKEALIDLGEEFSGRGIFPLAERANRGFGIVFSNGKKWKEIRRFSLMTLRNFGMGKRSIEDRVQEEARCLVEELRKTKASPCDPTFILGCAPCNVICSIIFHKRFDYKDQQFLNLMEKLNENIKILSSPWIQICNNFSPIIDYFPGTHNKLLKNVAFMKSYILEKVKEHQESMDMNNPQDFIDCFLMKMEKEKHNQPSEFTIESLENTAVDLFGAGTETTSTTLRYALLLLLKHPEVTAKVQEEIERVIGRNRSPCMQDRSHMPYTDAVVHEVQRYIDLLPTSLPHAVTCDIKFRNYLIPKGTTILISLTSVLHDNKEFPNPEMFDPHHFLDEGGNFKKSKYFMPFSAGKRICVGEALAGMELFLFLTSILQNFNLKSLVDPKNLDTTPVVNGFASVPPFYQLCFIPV
Sequence of Cytochrome P450 2D6 (P10635 whole entry): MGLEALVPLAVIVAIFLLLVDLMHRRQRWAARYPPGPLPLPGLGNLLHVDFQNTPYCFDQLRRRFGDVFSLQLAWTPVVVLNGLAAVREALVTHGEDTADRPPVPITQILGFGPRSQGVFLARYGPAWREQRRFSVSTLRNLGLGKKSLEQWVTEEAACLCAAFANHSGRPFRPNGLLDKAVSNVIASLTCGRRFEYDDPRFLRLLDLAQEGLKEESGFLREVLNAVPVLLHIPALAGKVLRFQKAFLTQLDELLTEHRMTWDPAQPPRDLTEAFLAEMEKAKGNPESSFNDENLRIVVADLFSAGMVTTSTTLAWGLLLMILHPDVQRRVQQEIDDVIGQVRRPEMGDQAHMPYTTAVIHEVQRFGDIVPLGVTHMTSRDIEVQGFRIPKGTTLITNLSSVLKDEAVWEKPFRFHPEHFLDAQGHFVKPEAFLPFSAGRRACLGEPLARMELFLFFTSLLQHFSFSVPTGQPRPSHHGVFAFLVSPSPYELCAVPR
Sequence of Cytochrome P450 2C19 (P33261 whole entry): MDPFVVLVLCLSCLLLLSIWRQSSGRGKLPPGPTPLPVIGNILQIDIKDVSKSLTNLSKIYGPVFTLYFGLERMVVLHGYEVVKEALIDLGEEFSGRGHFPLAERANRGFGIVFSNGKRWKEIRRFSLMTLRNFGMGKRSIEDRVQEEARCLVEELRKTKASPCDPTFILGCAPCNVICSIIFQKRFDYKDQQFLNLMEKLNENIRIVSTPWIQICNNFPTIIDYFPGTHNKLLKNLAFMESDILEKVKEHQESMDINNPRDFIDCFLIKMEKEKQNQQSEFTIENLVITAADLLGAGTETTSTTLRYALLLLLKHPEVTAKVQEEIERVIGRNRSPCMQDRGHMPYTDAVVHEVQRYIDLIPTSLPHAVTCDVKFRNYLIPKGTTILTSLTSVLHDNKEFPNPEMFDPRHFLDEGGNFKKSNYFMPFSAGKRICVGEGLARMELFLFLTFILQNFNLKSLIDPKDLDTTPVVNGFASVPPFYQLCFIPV

CC(Oc1ccc2nc(N)n(CC(O)c3ccc(C(F)(F)F)cc3Cl)c2n1)C(F)(F)F (racemic)
Survival [1]: 12 days
Cmax/dose [2]: 0.019 µg/mL/mg/kg
Tmax [3]: 0.5 h
fraction unbound [4]: < 0.01
Vd [5]: 2.49 L/kg
Cmax/dose [6]: 0.035 µg/mL/mg/kg
Cmax/dose [7]: 0.021 µg/mL/mg/kg
clearance [8]: 22.6 mL/min/kg
solubility [9]: 5 µM (≈ 2.34 µg/mL)
Tmax [10]: 6 h
ED90 [11]: 28.6 mg/kg
IC50 [12]: 5 nM
Activity [13]: 94%
microsomal CLint [14]: 32 µL/min/mg
IC50 [15]: 4700 nM
AUC(0-t) at 23 h [16]: 6930 ng·h/mL
AUC [17]: 900 ng·h/mL
Tmax [18]: 4 h
AUC/dose [19]: 0.16 µg·h/mL/mg/kg
IC50 [20]: 22900 nM
AUC [21]: 1.66 µM·h
IC50 [22]: > 33300 nM
hepatocyte CLint [23]: 43 µL/min/1e6 cells
logD [24]: > 4.5
Cmax [25]: 600 ng/mL
half-life [26]: 7.16 h
half-life [27]: 1.76 h
IC50 [28]: > 30000 nM
AUC(0-t) at 23 h [29]: 10400 ng·h/mL
AUC [30]: 2310 ng·h/mL
IC50 [31]: 20300 nM
AUC(0-t) at 23 h [32]: 480 ng·h/mL
Cmax [33]: 1070 ng/mL
AUC [34]: 6.55 ug.hr/ml/day
IC50 [35]: 28300 nM
Cmax/dose [36]: 0.022 µg/mL/mg/kg
AUC [37]: 3480 ng·h/mL
AUC(0-t) at 23 h [38]: 2700 ng·h/mL
Cmax [39]: 680 ng/mL
microsomal CLint [40]: 19 µL/min/mg
bioavailability [41]: 100%
Cmax [42]: 360 ng/mL
selectivity ratio [43]: > 325
Cmax [44]: 2040 nM
IC50 [45]: 40 nM
Tmax [46]: 2 h

Nc1nc2ccc(OCC(F)(F)F)nc2n1CC(O)c1ccc(C(F)(F)F)cc1Cl (racemic)
IC50 [47]: 24.6 nM
IC50 [48]: 178 nM
IC50 [49]: 19.7 nM
IC50 [50]: 12 nM
IC50 [12]: 10 nM
microsomal CLint [14]: 45 µL/min/mg
IC50 [22]: > 33300 nM
hepatocyte CLint [23]: 36 µL/min/1e6 cells
IC50 [51]: 62 nM
IC50 [52]: 34.1 nM
IC50 [53]: 11.8 nM
microsomal CLint [40]: 21 µL/min/mg
IC50 [54]: 135 nM
Activity [55]: Active
selectivity ratio [43]: 232
IC50 [56]: 16.4 nM
IC50 [45]: 43 nM

CCN(CC)CCCC(C)Nc1ccnc2cc(Cl)ccc12 (centres undefined) [CHLOROQUINE]
Survival [57]: 27 days
